Reference: the PolyMetriX glass transition set
± gives the standard deviation of the reports.

In the case of *c1ccc(-c2cnc3cc(-c4ccc5nc(*)cnc5c4)ccc3n2)cc1 (repeat unit), the glass transition temperature is reported as 350.00 °C.
*Cc1ccccc1CSS* (repeat unit) gave a glass transition temperature of 39.00 °C.
Work on *OP(=O)(Oc1ccc(C(C)(C)c2ccc(*)cc2)cc1)Oc1c(Cl)c(Cl)c(Cl)c(Cl)c1Cl (repeat unit) yielded a glass transition temperature of 130.00 °C.
In the case of *c1cccc(Oc2ccc(Oc3cccc(N4C(=O)c5ccc(Oc6ccc7c(c6)C(=O)N(*)C7=O)cc5C4=O)c3)cc2)c1 (repeat unit), the glass transition temperature is reported as 204.00 °C.
For *C(=O)c1ccc(Oc2ccc(-c3ccc(Oc4ccc(C(=O)c5ccc6nc(*)ccc6c5)cc4)cc3)cc2)cc1 (repeat unit), the glass transition temperature was 155.00 °C.
In the case of *CC(c1ccccc1)C1C(=O)N(CCN(CC)c2ccc(/N=N/c3ccc([N+](=O)[O-])cc3)cc2)C(=O)C1* (repeat unit), the glass transition temperature is reported as 172.00 °C.
*CCCCCC(=O)Oc1ccc(OC(=O)CCCCCn2c(=O)c3cc4c(=O)n(*)c(=O)c4cc3c2=O)c(C)c1 (repeat unit) showed a glass transition temperature of 78.00 °C.
*c1ccc(Oc2ccc(-c3ccc(Oc4ccc(-c5nnc(*)c6c(-c7ccc(F)cc7)c(-c7ccc(F)cc7)c(-c7ccc(F)cc7)c(-c7ccc(F)cc7)c56)cc4)cc3)cc2)cc1 (repeat unit) showed a glass transition temperature of 320.00 °C.
In the case of *c1ccc(OCCCCCCN(CC)c2ccc(C(C#N)=C(C#N)C#N)cc2)c(-c2cc(-c3ccccc3)c3cc(Oc4ccc5nc(*)cc(-c6ccccc6)c5c4)ccc3n2)c1 (repeat unit), the glass transition temperature is reported as 175.00 °C.
With *CC(C)(C)C1C(=O)N(c2c(CC)cccc2CC)C(=O)C1* (repeat unit) the glass transition temperature was 210.00 °C.
Work on *C(=O)Nc1cccc(NC(=O)c2ccc3c(c2)C(=O)N(c2ccc(S(=O)(=O)c4ccc(N5C(=O)c6ccc(*)cc6C5=O)cc4)cc2)C3=O)c1 (repeat unit) yielded a glass transition temperature of 311.00 °C.
In the case of *CC(C)(CO*)COCC(F)(F)F (repeat unit), the glass transition temperature is reported as -41.00 °C.
With *OP(=O)(Oc1ccc(NC(=O)Oc2ccc(-c3ccc(OC(=O)Nc4ccc(*)cc4)cc3)cc2)cc1)c1ccccc1 (repeat unit) the glass transition temperature was 34.00 °C.
In the case of *CCCOCCCCOCCCN1C(=O)c2ccc(C(=O)Oc3ccc(OC(=O)c4ccc5c(c4)C(=O)N(*)C5=O)c(-c4ccccc4)c3)cc2C1=O (repeat unit), the glass transition temperature is reported as 71.00 °C.
Molecule *CCCCCCCCCCC(=O)Nc1ccc(NC(=O)CCCCCCCCCCN2C(=O)c3ccc(C(=O)c4ccc5c(c4)C(=O)N(*)C5=O)cc3C2=O)cc1 (repeat unit) has a glass transition temperature of 125.00 °C.
*CC#CCOC(=O)CCCCCCCCCCC(=O)O* (repeat unit) gave a glass transition temperature of -27.00 °C.
*CCCCCCCCCC(c1ccc(O)cc1)C(*)c1ccc(O)cc1C (repeat unit) gave a glass transition temperature of -1.00 °C.
*c1ccc(Cc2ccc(N3C(=O)c4ccc(Oc5ccc(C6(c7ccc(Oc8ccc9c(c8)C(=O)N(*)C9=O)cc7)CCCCCCCCCCC6)cc5)cc4C3=O)cc2)cc1 (repeat unit) showed a glass transition temperature of 240.00 °C.
In the case of *CCC(C(=O)OC)C(*)C(=O)OC (repeat unit), the glass transition temperature is reported as 31.20 °C.
For *c1ccc2c(c1)C(=O)N(c1cccc(C(F)(F)C(F)(F)C(F)(F)c3cccc(N4C(=O)c5ccc(C(F)(F)C(F)(F)C(*)(F)F)cc5C4=O)c3)c1)C2=O (repeat unit), the glass transition temperature was 157.00 °C.
Molecule *COc1ccc(C(=O)OC(=O)c2ccc(O*)cc2)cc1 (repeat unit) has a glass transition temperature of 84.00 °C.
In the case of *CCCN(C)c1ccc(C(=O)c2ccc(N(*)C)cc2)cc1 (repeat unit), the glass transition temperature is reported as 101.00 °C.
In the case of *CC(O)COC(=O)C1CCC(C(=O)OCC(O)COc2ccc(C(C)(C)c3ccc(O*)cc3)cc2)CC1 (repeat unit), the glass transition temperature is reported as 70.00 °C.
With *c1cccc(-c2nc3ccc(Oc4ccc5nc(*)c(-c6ccccc6)nc5c4)cc3nc2-c2ccccc2)c1 (repeat unit) the glass transition temperature was 270.00 °C.
*Oc1cc(Br)cc(Br)c1* (repeat unit) showed a glass transition temperature of 170.00 °C.
*CC(*)(C)C(=O)OCCCCl (repeat unit) showed a glass transition temperature of 50.00 °C.
*CC(O)COc1ccc(C(C)(C)c2ccc(OCC(O)COc3cccc(NC(=O)CCCCC(=O)Nc4cccc(O*)c4)c3)cc2)cc1 (repeat unit) showed a glass transition temperature of 103.00 °C.
*CC(*)(C)C(=O)OC (repeat unit) [poly(methyl methacrylate)] showed a glass transition temperature of 108.92 ± 15 °C.
Work on *c1ccc2c(c1)Sc1cc(-c3sc(/C=C/C4=CC(=C(C#N)C#N)C=C(/C=C/c5sc(*)c(CCCCCC)c5CCCCCC)O4)c(CCCCCC)c3CCCCCC)ccc1N2CCCCCC (repeat unit) yielded a glass transition temperature of 130.00 °C.
*C(=O)c1ccc2c(c1)C(=O)N(c1cccc(S(=O)(=O)c3cccc(N4C(=O)c5ccc(*)cc5C4=O)c3)c1)C2=O (repeat unit) gave a glass transition temperature of 275.50 ± 3.5 °C.
With *CC(CBr)O* (repeat unit) the glass transition temperature was -14.00 °C.
*COc1ccc(C(C)(C)c2ccc(O*)cc2)cc1 (repeat unit) showed a glass transition temperature of 90.00 °C.
*Oc1ccc(C(C)(C)c2ccc(OC(=O)c3ccc(C(*)=O)cc3)c(C(C)C)c2)cc1C(C)C (repeat unit) showed a glass transition temperature of 140.00 °C.
Molecule *c1ccc(-c2nc3cc(-c4ccc5nc(-c6ccccc6)c(-c6ccc(-n7c(=O)c8cc9c(=O)n(*)c(=O)c9cc8c7=O)cc6)nc5c4)ccc3nc2-c2ccccc2)cc1 (repeat unit) has a glass transition temperature of 217.00 °C.
*C(=O)Nc1ccc(Oc2cccc(NC(=O)c3ccc4c(c3)C(=O)N(c3ccc(Oc5cccc(N6C(=O)c7ccc(*)cc7C6=O)c5)cc3)C4=O)c2)cc1 (repeat unit) gave a glass transition temperature of 211.00 °C.
*CC(O)COc1ccc(C(=O)c2ccc(O*)cc2)cc1 (repeat unit) gave a glass transition temperature of 130.00 °C.
For *Oc1ccc(S(=O)(=O)c2ccc(Oc3ccc(C4(c5ccc(*)cc5)CCCC4)cc3)cc2)cc1 (repeat unit), the glass transition temperature was 230.00 °C.
*CCCCCOc1ccc(OC(=O)c2ccc(C(=O)Oc3ccc(O*)cc3)cc2)cc1 (repeat unit) showed a glass transition temperature of 112.00 °C.
With *CC(*)(C)C(=O)OC(F)(F)C(F)(F)C(F)(F)C(F)(F)C(F)(F)C(F)(F)C(F)(F)C(F)(F)F (repeat unit) the glass transition temperature was 49.00 °C.
With *c1ccc(Oc2ccc(C(C)(C)c3ccc(Oc4ccc(-c5nc(-c6ccccn6)nnc5*)cc4)cc3)cc2)cc1 (repeat unit) the glass transition temperature was 220.00 °C.
*CCCCCCCCOC(=O)Nc1ccc(C)c(NC(=O)O*)c1 (repeat unit) gave a glass transition temperature of 64.00 °C.
Molecule *CCOC(=O)c1ccc(/C(C#N)=C(\c2ccc(OC)cc2)N2CCC(*)CC2)cc1 (repeat unit) has a glass transition temperature of 167.00 °C.
*Oc1cc(C)c(*)c(C)c1Br (repeat unit) gave a glass transition temperature of 280.1 °C.
Molecule *O[Si](Oc1ccc(C2(c3ccc(*)c(C)c3)c3ccccc3-c3ccccc32)cc1C)(c1ccccc1)c1ccccc1 (repeat unit) has a glass transition temperature of 171.00 °C.
Molecule *CC(c1ccccc1)C1C(=O)N(c2ccc(NC(=O)OCC3CCCN3c3ccc([N+](=O)[O-])cc3)cc2)C(=O)C1* (repeat unit) has a glass transition temperature of 208.00 °C.
*c1ccc(C(c2ccc(-n3c(=O)c4cc5c(=O)n(*)c(=O)c5cc4c3=O)cc2)(C(F)(F)F)C(F)(F)F)cc1 (repeat unit) showed a glass transition temperature of 362.50 ± 25 °C.
With *Oc1cccc(NC(=O)CCCCCCCC(=O)Nc2ccc(*)cc2)c1 (repeat unit) the glass transition temperature was 120.00 °C.
*Oc1ccc(Oc2ccc(NC(=O)c3cc(NC(=O)c4ccc(OC(C)=O)cc4)cc(C(=O)Nc4ccc(*)cc4)c3)cc2)cc1 (repeat unit) gave a glass transition temperature of 251.00 °C.
With *CC(*)(C)C(=O)OCC1COC(c2ccccc2)O1 (repeat unit) the glass transition temperature was 130.00 °C.
In the case of *CCOCCOCCOC(=O)CCCCCC(=O)O* (repeat unit), the glass transition temperature is reported as -44.50 °C.
*Oc1ccc(C2(c3ccc(OC(=O)c4ccc(Oc5ccc(C6(c7ccc(Oc8ccc(C(*)=O)cc8)cc7)CCC(C(C)(C)C)CC6)cc5)cc4)cc3)CC3CC2C2CCCC32)cc1 (repeat unit) gave a glass transition temperature of 181.00 °C.
*CCOCCOC(=O)CCCCCCC(=O)O* (repeat unit) showed a glass transition temperature of -66.00 °C.
In the case of *Oc1ccc(Oc2ccc(C(=O)c3cccc4cccc(C(=O)c5ccc(*)cc5)c34)cc2)cc1 (repeat unit), the glass transition temperature is reported as 202.00 °C.
Molecule *c1ccc(NC(=O)c2ccc(OCCOCCOCCOc3ccc(C(=O)Nc4ccc5[nH]c(*)nc5c4)cc3)cc2)cc1 (repeat unit) has a glass transition temperature of 155.00 °C.
Molecule *C(=O)Oc1ccc(C(C)(C)c2ccc(OC(=O)c3ccc4c(c3)C(=O)N(c3cccc(N5C(=O)c6ccc(*)cc6C5=O)c3)C4=O)cc2)cc1 (repeat unit) has a glass transition temperature of 225.00 °C.
*Oc1ccc(C(c2ccc(OC(*)=O)cc2)C2CC3CC2C2C4CCC(C4)C32)cc1 (repeat unit) gave a glass transition temperature of 253.00 °C.
For *O[Si](C)(C)COC(=O)CCCCCCCCC(=O)Oc1ccc(S(=O)(=O)c2ccc(Oc3ccc(/C=C4\CCC/C(=C\c5ccc(Oc6ccc(S(=O)(=O)c7ccc(OC(=O)CCCCCCCCC(=O)OC[Si](*)(C)C)cc7)cc6)cc5)C4=O)cc3)cc2)cc1 (repeat unit), the glass transition temperature was 80.00 °C.
Molecule *c1ccc(Oc2ccc(N3C(=O)c4ccc(Oc5ccc(Oc6ccc(Oc7ccc8c(c7)C(=O)N(*)C8=O)cc6)cc5)cc4C3=O)cc2)cc1 (repeat unit) has a glass transition temperature of 215.00 °C.
For *c1ccc(-c2ccc([Si](CCCC)(CCCC)[Si](*)(CCCC)CCCC)s2)s1 (repeat unit), the glass transition temperature was -20.00 °C.
*c1ccc(Oc2ccc(C(C)(C)c3ccc(Oc4ccc(-c5ccc(*)s5)cc4C(F)(F)F)cc3)cc2)c(C(F)(F)F)c1 (repeat unit) gave a glass transition temperature of 130.00 °C.
For *CC(*)CNc1ccc([N+](=O)[O-])cc1[N+](=O)[O-] (repeat unit), the glass transition temperature was 160.00 °C.
For *CCCCCOc1ccc(NC(=O)c2cccc(C(=O)Nc3ccc(O*)cc3)c2)cc1 (repeat unit), the glass transition temperature was 155.00 °C.
With *C[Si](*)(C)CCCCCC (repeat unit) the glass transition temperature was -77.60 °C.
*c1ccc(Oc2ccc(Oc3ccc(N4C(=O)c5ccc(-c6cccc7c6C(=O)N(*)C7=O)cc5C4=O)cc3)cc2)cc1 (repeat unit) gave a glass transition temperature of 285.00 °C.
Molecule *CC(CO*)(CSC)CSC (repeat unit) has a glass transition temperature of -6.00 °C.
